Reference: patent US9809583B2 (priority 2014, dated 2017)
Where a name gives a salt, the structure may show the parent alone.

target: androgen receptor (hAR) (Homo sapiens (Human), UniProt P10275); assay: Test of transcriptional activity (hAR / ARE-Luc dual-luciferase assay in CHO cells); format: cell-based; settings: CHO cells with hAR and ARE-Luc, 24 hours; 10 nM DHT = 100%; read-out: EC50 [nM] (mean ± SE)
How it was run: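 CHO cells cultured 24 h, then transfected with hAR and ARE-Luc plasmids. Transfected cells treated with 0.1˜10,000 nM compound for 24 h; transcriptional activity read by dual-luciferase reporter.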

Sequence of androgen receptor (hAR) (P10275 whole entry): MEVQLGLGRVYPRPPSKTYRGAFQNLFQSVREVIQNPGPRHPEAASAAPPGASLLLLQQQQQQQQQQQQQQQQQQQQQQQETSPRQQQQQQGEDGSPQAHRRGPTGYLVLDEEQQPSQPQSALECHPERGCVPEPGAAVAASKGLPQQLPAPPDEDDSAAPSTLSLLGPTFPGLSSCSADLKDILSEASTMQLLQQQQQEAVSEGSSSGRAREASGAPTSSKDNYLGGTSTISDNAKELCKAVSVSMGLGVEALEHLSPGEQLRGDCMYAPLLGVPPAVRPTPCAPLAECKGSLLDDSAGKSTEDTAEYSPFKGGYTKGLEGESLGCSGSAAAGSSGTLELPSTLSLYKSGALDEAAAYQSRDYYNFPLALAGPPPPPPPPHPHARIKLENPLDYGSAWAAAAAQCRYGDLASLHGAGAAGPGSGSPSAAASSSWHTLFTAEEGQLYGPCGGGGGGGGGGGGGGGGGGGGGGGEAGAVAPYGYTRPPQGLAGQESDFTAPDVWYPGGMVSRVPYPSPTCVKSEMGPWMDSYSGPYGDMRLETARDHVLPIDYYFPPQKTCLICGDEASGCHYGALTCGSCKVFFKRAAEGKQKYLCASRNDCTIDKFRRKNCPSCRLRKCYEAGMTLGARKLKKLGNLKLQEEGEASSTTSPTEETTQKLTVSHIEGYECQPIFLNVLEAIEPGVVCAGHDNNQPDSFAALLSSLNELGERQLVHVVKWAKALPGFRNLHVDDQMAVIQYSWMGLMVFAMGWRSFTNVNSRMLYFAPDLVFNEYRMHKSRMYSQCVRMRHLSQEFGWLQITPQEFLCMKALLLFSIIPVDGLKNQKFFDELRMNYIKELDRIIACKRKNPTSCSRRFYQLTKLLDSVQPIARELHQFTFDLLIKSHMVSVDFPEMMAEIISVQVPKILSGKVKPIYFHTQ

Compound	EC50
(2R,5S)-N-(4-cyano-2-methylphenyl)-3-(4-cyano-3-(trifluoromethyl)phenyl)-2-(trifluoromethyl)oxazolidine-5-carboxamide [Example 133]	44 nM
O=[N+]([O-])c1ccc(N2C[C@@H](COc3ccc(/C=N/O)cc3)O[C@@H]2C(F)(F)F)cc1C(F)(F)F [Example 87, (E)-4-(((2R,5S)-3-(4-nitro-3-(trifluoromethyl)phenyl)-2-(trifluoromethyl)oxazolidin-5-yl)methoxy)benzaldehyde oxime]	9.22 nM
(2R,5S)-N-(4-cyano-2,5-difluorophenyl)-3-(4-cyano-3-(trifluoromethyl)phenyl)-2-(trifluoromethyl)oxazolidine-5-carboxamide [Example 131]	2.35 nM
Cc1cc(N2C[C@@H](COc3ccc(/C=N/O)cc3)O[C@@H]2C(F)(F)F)ccc1[N+](=O)[O-] [Example 70, (E)-4-(((2R,5S)-3-(3-methyl-4-nitrophenyl)-2-(trifluoromethyl)oxazolidin-5-yl)methoxy)benzaldehyde oxime]	0.62 nM
N#Cc1ccc(OC[C@@H]2CN(c3ccc(Cl)c(Cl)c3)[C@@H](C(F)(F)F)O2)cc1 [Example 63, 4-(((2R,5S)-3-(3,4-dichlorophenyl)-2-(trifluoromethyl)oxazolidin-5-yl)methoxy)benzonitrile]	36.3 nM
(2R,5S)-3-(3-chloro-4-nitrophenyl)-N-(4-cyanophenyl)-2-(trifluoromethyl)oxazolidine-5-carboxamide [Example 122]	67.4 nM
(2R,5S)-3-(3-chloro-4-nitrophenyl)-N-(4-cyano-2-fluorophenyl)-2-(trifluoromethyl)oxazolidine-5-carboxamide [Example 124]	3.15 nM
(2R,5S)-N-(4-acetamidophenyl)-3-(3-chloro-4-cyanophenyl)-2-(trifluoromethyl)oxazolidine-5-carboxamide [Example 118]	30.4 nM
(2R,5S)-3-(4-cyano-3-(trifluoromethyl)phenyl)-N-(3,4-dicyanophenyl)-2-(trifluoromethyl)oxazolidine-5-carboxamide [Example 132]	3.44 nM
Cc1cc(N2C[C@@H](COc3ccc(C#N)cc3)O[C@@H]2C(F)(F)F)ccc1[N+](=O)[O-] [Example 53, 4-(((2R,5S)-3-(3-methyl-4-nitrophenyl)-2-(trifluoromethyl)oxazolidin-5-yl)methoxy)benzonitrile]	2.5 ± 0.7 nM
(2R,5S)-N-(2-chloro-4-cyanophenyl)-3-(4-cyano-3-(trifluoromethyl)phenyl)-2-(trifluoromethyl)oxazolidine-5-carboxamide [Example 114]	201 nM
(2R,5S)-3-(3-chloro-4-nitrophenyl)-N-(6-cyanopyridin-3-yl)-2-(trifluoromethyl)oxazolidine-5-carboxamide [Example 125]	11.2 nM
(2R,5S)-3-(3-chloro-4-cyanophenyl)-N-(pyridin-4-yl)-2-(trifluoromethyl)oxazolidine-5-carboxamide [Example 121]	616 nM
(2R,5S)-3-(4-cyano-3-(trifluoromethyl)phenyl)-N-(4-cyano-3-methoxyphenyl)-2-(trifluoromethyl)oxazolidine-5-carboxamide [Example 127]	183 nM
(2R,5S)-N-(4-cyano-2,6-difluorophenyl)-3-(4-cyano-3-(trifluoromethyl)phenyl)-2-(trifluoromethyl)oxazolidine-5-carboxamide [Example 129]	4.68 nM
N#Cc1ccc(OC[C@@H]2CN(c3ccc([N+](=O)[O-])c(C(F)(F)F)c3)[C@H](C(F)(F)F)O2)cc1 [Example 81, 4-(((2S,5S)-3-(4-nitro-3-(trifluoromethyl)phenyl)-2-(trifluoromethyl)oxazolidin-5-yl)methoxy)benzonitrile]	59.5 nM
Cc1cc(N2C[C@@H](COc3ccncc3)O[C@@H]2C(F)(F)F)ccc1[N+](=O)[O-] [Example 69, (2R,5S)-3-(3-methyl-4-nitrophenyl)-5-((pyridin-4-yloxy)methyl)-2-(trifluoromethyl)oxazolidine]	1.54 nM

same assay, conditions: EC50 [nM] (mean ± SE), CHO cells with hAR and ARE-Luc, 24 hours; 10 nM DHT = 100%

Compound	EC50
CC(C)C(=O)Nc1ccc(NC(=O)[C@@H]2CN(c3ccc(C#N)c(C(F)(F)F)c3)[C@@H](C(F)(F)F)O2)cc1 [Example 159, (2R,5S)-3-(4-cyano-3-(trifluoromethyl)phenyl)-N-(4-isobutylamidophenyl)-2-(trifluoromethyl)oxazolidine-5-carboxamide]	288 nM
CNC(=O)Nc1ccc(OC[C@@H]2CN(c3ccc(C#N)c(C(F)(F)F)c3)[C@@H](C(F)(F)F)O2)cc1 [Example 16, 1-(4-(((2R,5S)-3-(4-cyano-3-(trifluoromethyl)phenyl)-2-(trifluoromethyl)oxazolidin-5-yl)methoxy)phenyl)-3-methylurea]	21.3 nM
N#Cc1ccc(N2C[C@@H](C(=O)Nc3ccc(N)cc3)O[C@@H]2C(F)(F)F)cc1C(F)(F)F [Example 156, (2R,5S)-N-(4-aminophenyl)-3-(4-cyano-3-(trifluoromethyl)phenyl)-2-(trifluoromethyl)oxazolidine-5-carboxamide]	323 nM
N#Cc1ccc(N2C[C@@H](C(=O)Nc3ccc(NC(=O)CO)cc3)O[C@@H]2C(F)(F)F)cc1C(F)(F)F [Example 160, (2R,5S)-3-(4-cyano-3-(trifluoromethyl)phenyl)-N-(4-(2-hydroxyacetamido)phenyl)-2-(trifluoromethyl)oxazolidine-5-carboxamide]	105 nM
N#Cc1ccc(N2C[C@@H](COc3cccnc3)O[C@@H]2C(F)(F)F)cc1C(F)(F)F [Example 60, 4-((2R,5S)-5-((pyridin-3-yloxy)methyl)-2-(trifluoromethyl)oxazolidin-3-yl)-2-(trifluoromethyl)benzonitrile]	10.4 nM
N#Cc1ccc(N2C[C@@H](COc3ccc(/C=N/O)cc3[N+](=O)[O-])O[C@@H]2C(F)(F)F)cc1C(F)(F)F [Example 98, 4-((2R,5S)-5-((4-((E)-(hydroxyimino)methyl)-2-nitrophenoxy)methyl)-2-(trifluoromethyl)oxazolidin-3-yl)-2-(trifluoromethyl)benzonitrile]	2.91 nM
N#Cc1ccc(N2C[C@@H](C(=O)Nc3ccc(N)cc3Cl)O[C@@H]2C(F)(F)F)cc1C(F)(F)F [Example 152, (2R,5S)-N-(4-amino-2-chlorophenyl)-3-(4-cyano-3-(trifluoromethyl)phenyl)-2-(trifluoromethyl)oxazolidine-5-carboxamide]	521 nM
CN(C)C(=O)Nc1ccc(OC[C@@H]2CN(c3ccc(C#N)c(C(F)(F)F)c3)[C@@H](C(F)(F)F)O2)cc1 [Example 40, 3-(4-(((2R,5S)-3-(4-cyano-3-(trifluoromethyl)phenyl)-2-(trifluoromethyl)oxazolidin-5-yl)methoxy)phenyl)-1,1-dimethylurea]	438 nM
N#Cc1ccc(N2C[C@@H](C(=O)Nc3ccc(NC(N)=O)cc3)O[C@@H]2C(F)(F)F)cc1C(F)(F)F [Example 161, (2R,5S)-3-(4-cyano-3-(trifluoromethyl)phenyl)-2-(trifluoromethyl)-N-(4-ureidophenyl)oxazolidine-5-carboxamide]	240 nM
N#Cc1ccc(N2C[C@@H](COc3ccc(NC(=O)[C@@H]4CCCN4)cc3)O[C@@H]2C(F)(F)F)cc1C(F)(F)F [Example 51, (S)-N-(4-(((2R,5S)-3-(4-cyano-3-(trifluoromethyl)phenyl)-2-(trifluoromethyl)oxazolidin-5-yl)methoxy)phenyl)pyrrolidine-2-carboxamide 2,2,2-trifluoroacetate]	165 nM
CC(=O)N1CCN(C(=O)[C@@H]2CN(c3ccc(C#N)c(C(F)(F)F)c3)[C@@H](C(F)(F)F)O2)CC1 [Example 172, 4-((2R,5S)-5-(4-acetylpiperazine-1-carbonyl)-2-(trifluoromethyl)oxazolidin-3-yl)-2-(trifluoromethyl)benzonitrile]	699 nM
N#Cc1ccc(N2C[C@@H](C(=O)N3CCC(N)CC3)O[C@@H]2C(F)(F)F)cc1C(F)(F)F [Example 175, 4-((2R,5S)-5-(4-aminopiperidine-1-carbonyl)-2-(trifluoromethyl)oxazolidin-3-yl)-2-(trifluoromethyl)benzonitrile hydrochloride]	85.2 nM
N#Cc1ccc(OC[C@@H]2CN(c3ccc(C#N)c(Cl)c3)[C@@H](C(F)(F)F)O2)cn1 [Example 73, 5-(((2R,5S)-3-(3-chloro-4-cyanophenyl)-2-(trifluoromethyl)oxazolidin-5-yl)methoxy)picolinonitrile]	0.991 nM
N#Cc1ccc(N2C[C@@H](COc3ccncc3)O[C@@H]2C(F)(F)F)cc1C(F)(F)F [Example 59, 4-((2R,5S)-5-((pyridin-4-yloxy)methyl)-2-(trifluoromethyl)oxazolidin-3-yl)-2-(trifluoromethyl)benzonitrile]	3.25 nM
N#Cc1ccc(N2C[C@@H](C(=O)Nc3ccnc(Cl)c3)O[C@@H]2C(F)(F)F)cc1C(F)(F)F [Example 142, (2R,5S)-N-(2-chloropyridin-4-yl)-3-(4-cyano-3-(trifluoromethyl)phenyl)-2-(trifluoromethyl)oxazolidine-5-carboxamide]	0.79 nM
N#Cc1ccc(N2C[C@@H](C(=O)Nc3ccc(NC(=O)CN)cc3)O[C@@H]2C(F)(F)F)cc1C(F)(F)F [Example 163, (2R,5S)-N-(4-(2-aminoacetamido)phenyl)-3-(4-cyano-3-(trifluoromethyl)phenyl)-2-(trifluoromethyl)oxazolidine-5-carboxamide hydrochloride]	214 nM
Cc1c(N2C[C@@H](COc3ccc(C#N)cc3)O[C@@H]2C(F)(F)F)ccc(C#N)c1Cl [Example 75, 2-chloro-4-((2R,5S)-5-((4-cyanophenoxy)methyl)-2-(trifluoromethyl)oxazolidin-3-yl)-3-methylbenzonitrile]	37 nM
